We go through 24 compounds from patent US10927123B2, “Modulators of the beta-3 adrenergic receptor useful for the treatment or prevention of disorders related thereto” (Arena Pharmaceuticals, Inc., priority 2016, dated 2021).

Each structure is given as a SMILES string.

The assay deals with Beta-3 Adrenergic Receptor (Homo sapiens (Human), UniProt P13945). Briefly: HTRF cAMP antagonist assay (IC50 determination). As to conditions: CHO-K1 cells stably expressing recombinant receptor; antagonism of isoproterenol at EC90; cAMP readout. It is filed as cell-based. Summed up: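 In this functional readout, recombinant CHO-K1 cells received compound, then isoproterenol at its EC90. After 1 h at room temperature, cAMP levels were determined by HTRF using an on-plate standard curve, and IC50 values were fitted.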
Beta-3 Adrenergic Receptor, sequence (P13945 whole entry, species assumed): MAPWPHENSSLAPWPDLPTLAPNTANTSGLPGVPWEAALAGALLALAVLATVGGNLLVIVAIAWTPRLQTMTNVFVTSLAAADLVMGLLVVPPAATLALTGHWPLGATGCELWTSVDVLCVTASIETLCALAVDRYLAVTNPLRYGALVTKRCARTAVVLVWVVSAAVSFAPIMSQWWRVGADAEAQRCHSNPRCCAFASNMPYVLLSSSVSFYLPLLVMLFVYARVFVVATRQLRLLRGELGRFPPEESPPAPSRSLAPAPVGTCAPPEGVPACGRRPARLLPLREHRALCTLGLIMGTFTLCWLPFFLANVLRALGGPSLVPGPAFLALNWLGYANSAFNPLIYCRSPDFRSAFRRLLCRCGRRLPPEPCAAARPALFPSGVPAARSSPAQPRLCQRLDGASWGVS
For orientation: Time-resolved FRET reads energy transfer from a long-lived donor to a nearby acceptor.
On to `O=S(=O)(CC1CC1)c1cccc(OC[C@@H](O)CNC2COC3(CCN(S(=O)(=O)c4ccc5ccccc5c4)CC3)C2)c1` (stereo partly drawn) [Compound 7, (2S)-1-(3-(cyclopropylmethylsulfonyl)phenoxy)-3-(8-(naphthalen-2-ylsulfonyl)-1-oxa-8-azaspiro[4.5]decan-3-ylamino)propan-2-ol], for which the IC50 came out at 0.0342 µM.

Consider `CS(=O)(=O)c1cccc(OC[C@@H](O)CNC2COC3(CCN(S(=O)(=O)c4ccccn4)CC3)C2)c1` (stereo partly drawn) [Compound 72, (2S)-1-(3-(methylsulfonyl)phenoxy)-3-(8-(pyridin-2-ylsulfonyl)-1-oxa-8-azaspiro[4.5]decan-3-ylamino)propan-2-ol], for which the IC50 was 0.329 µM.

With `CC(F)S(=O)(=O)c1cccc(OC[C@@H](O)CN[C@H]2COC3(CCN(S(=O)(=O)c4cnc5ccccc5c4)CC3)C2)c1` (stereo partly drawn) [Compound 233, (2S)-1-(3-(1-fluoroethylsulfonyl)phenoxy)-3-((R)-8-(quinolin-3-ylsulfonyl)-1-oxa-8-azaspiro[4.5]decan-3-ylamino)propan-2-ol], the IC50 is 0.00972 µM.

Consider `CCOC(=O)C(C)(C)S(=O)(=O)c1cccc(OC[C@@H](O)CN[C@H]2COC3(CCN(S(=O)(=O)c4cnc5ccccc5c4)CC3)C2)c1` [Compound 145, ethyl 2-(3-((S)-2-hydroxy-3-((R)-8-(quinolin-3-ylsulfonyl)-1-oxa-8-azaspiro[4.5]decan-3-ylamino)propoxy)phenylsulfonyl)-2-methylpropanoate], for which the 50% inhibitory concentration (IC50) came to 0.0819 µM.

Take `O=S(=O)(c1cnc(Cl)c(Br)c1)N1CCC2(CC1)C[C@@H](NC[C@H](O)COc1cccc(S(=O)(=O)C3(CO)CC3)c1)CO2` [Compound 221, (S)-1-((R)-8-(5-bromo-6-chloropyridin-3-ylsulfonyl)-1-oxa-8-azaspiro[4.5]decan-3-ylamino)-3-(3-(1-(hydroxymethyl)cyclopropylsulfonyl)phenoxy)propan-2-ol]: the concentration for half-maximal inhibition (IC50) was 0.0206 µM.

For the compound `CS(=O)(=O)Cc1cccc(OC[C@@H](O)CN[C@H]2COC3(CCN(S(=O)(=O)c4cnc5ccccc5c4)CC3)C2)c1` [Compound 95, (S)-1-(3-(methylsulfonylmethyl)phenoxy)-3-((R)-8-(quinolin-3-ylsulfonyl)-1-oxa-8-azaspiro[4.5]decan-3-ylamino)propan-2-ol], the half-inhibitory concentration (IC50) is 0.0211 µM.

Regarding `COc1c(-c2ccc(CN)cc2)cccc1S(=O)(=O)N1CCC2(CC1)C[C@H](NC[C@H](O)COc1cccc(S(=O)(=O)C3CC3)c1)CO2` [Compound 228, (S)-1-((S)-8-(4′-(aminomethyl)-2-methoxybiphenyl-3-ylsulfonyl)-1-oxa-8-azaspiro[4.5]decan-3-ylamino)-3-(3-(cyclopropylsulfonyl)phenoxy)propan-2-ol], the half-inhibitory concentration (IC50) is 0.0291 µM.

`Cc1c(S(=O)(=O)N2CCC3(CC2)C[C@@H](NC[C@H](O)COc2cccc(S(=O)(=O)C4CC4)c2)CO3)cnc2c1N(C)CCO2` [Compound 275, (S)-1-(3-(cyclopropylsulfonyl)phenoxy)-3-((R)-8-(1,8-dimethyl-2,3-dihydro-1H-pyrido[2,3-b][1,4]oxazin-7-ylsulfonyl)-1-oxa-8-azaspiro[4.5]decan-3-ylamino)propan-2-ol]: the IC50 is 0.0623 µM.

For `CCC(C)(C)NCc1ccc(-c2cccc(S(=O)(=O)N3CCC4(CC3)C[C@@H](NC[C@H](O)COc3cccc(S(=O)(=O)C5(CO)CC5)c3)CO4)c2)cc1` [Compound 263, (S)-1-(3-(1-(hydroxymethyl)cyclopropylsulfonyl)phenoxy)-3-((R)-8-(4′-((tert-pentylamino)methyl)biphenyl-3-ylsulfonyl)-1-oxa-8-azaspiro[4.5]decan-3-ylamino)propan-2-ol], the 50% inhibitory concentration (IC50) amounted to 0.755 µM.

In the case of `CC(F)S(=O)(=O)c1cccc(OC[C@@H](O)CN[C@H]2COC3(CCN(S(=O)(=O)c4ccc5ncccc5c4)CC3)C2)c1` (stereo partly drawn) [Compound 234, (2S)-1-(3-(1-fluoroethylsulfonyl)phenoxy)-3-((R)-8-(quinolin-6-ylsulfonyl)-1-oxa-8-azaspiro[4.5]decan-3-ylamino)propan-2-ol], the concentration for half-maximal inhibition (IC50) amounted to 0.0102 µM.

With `O=S(=O)(c1cccc(OC[C@@H](O)CN[C@H]2COC3(CCN(S(=O)(=O)c4cnc5c(c4)CCCO5)CC3)C2)c1)C1CC1` [Compound 291, (5)-1-(3-(cyclopropylsulfonyl)phenoxy)-3-((R)-8-(3,4-dihydro-2H-pyrano[2,3-b]pyridin-6-ylsulfonyl)-1-oxa-8-azaspiro[4.5]decan-3-ylamino)propan-2-ol], the half-maximal inhibitory concentration (IC50) turned out to be 0.0698 µM.

Consider `NCc1ccc(-c2ccc(F)c(S(=O)(=O)N3CCC4(CC3)C[C@H](NC[C@H](O)COc3cccc(S(=O)(=O)C5(CO)CC5)c3)CO4)c2)cc1` [Compound 162, (S)-1-((S)-8-(4′-(aminomethyl)-4-fluorobiphenyl-3-ylsulfonyl)-1-oxa-8-azaspiro[4.5]decan-3-ylamino)-3-(3-(1-(hydroxymethyl)cyclopropylsulfonyl)phenoxy)propan-2-ol], for which the half-inhibitory concentration (IC50) came out at 0.0295 µM.

With `Cc1cccc(-c2cccc(S(=O)(=O)N3CCC4(CC3)C[C@H](NC[C@H](O)COc3cccc(S(=O)(=O)CCO)c3)CO4)c2)n1` [Compound 120, (5)-1-(3-(2-hydroxyethylsulfonyl)phenoxy)-3-((S)-8-(3-(6-methylpyridin-2-yl)phenylsulfonyl)-1-oxa-8-azaspiro[4.5]decan-3-ylamino)propan-2-ol], the IC50 is 0.177 µM.

Turning to `Cc1cc(=O)[nH]c2ccc(S(=O)(=O)N3CCC4(CC3)C[C@@H](NC[C@H](O)COc3cccc(S(=O)(=O)C5(CO)CC5)c3)CO4)cc12` [Compound 236, 6-((R)-3-((S)-2-hydroxy-3-(3-(1-(hydroxymethyl)cyclopropylsulfonyl)phenoxy)propylamino)-1-oxa-8-azaspiro[4.5]decan-8-ylsulfonyl)-4-methylquinolin-2(1H)-one], the half-inhibitory concentration (IC50) was 0.369 µM.

Take `CCS(=O)(=O)c1cccc(OC[C@@H](O)CN[C@H]2COC3(CCN(S(=O)(=O)c4cnc5ccccc5c4)CC3)C2)c1` [Compound 122, (S)-1-(3-(ethylsulfonyl)phenoxy)-3-((R)-8-(quinolin-3-ylsulfonyl)-1-oxa-8-azaspiro[4.5]decan-3-ylamino)propan-2-ol]: the 50% inhibitory concentration (IC50) turned out to be 0.00781 µM.

For the compound `O=S(=O)(c1cccc(OC[C@@H](O)CN[C@H]2COC3(CCN(S(=O)(=O)c4cnc5cn[nH]c5c4)CC3)C2)c1)C1CC1` [Compound 319, (S)-1-((R)-8-(1H-pyrazolo[4,3-b]pyridin-6-ylsulfonyl)-1-oxa-8-azaspiro[4.5]decan-3-ylamino)-3-(3-(cyclopropylsulfonyl)phenoxy)propan-2-ol], the IC50 came out at 0.0165 µM.

Turning to `CNCc1ccc(-c2cccc(S(=O)(=O)N3CCC4(CC3)CC(NC[C@H](O)COc3cccc(S(C)(=O)=O)c3)CO4)c2)cc1` (stereo partly drawn) [Compound 78, (2S)-1-(8-(4′-((methylamino)methyl)biphenyl-3-ylsulfonyl)-1-oxa-8-azaspiro[4.5]decan-3-ylamino)-3-(3-(methylsulfonyl)phenoxy)propan-2-ol], the IC50 was 0.0419 µM.

Regarding `CN1CCOc2cc(S(=O)(=O)N3CCC4(CC3)C[C@@H](NC[C@H](O)COc3cccc(S(=O)(=O)C5CC5)c3)CO4)cnc21` [Compound 290, (S)-1-(3-(cyclopropylsulfonyl)phenoxy)-3-((R)-8-(4-methyl-3,4-dihydro-2H-pyrido[3,2-b][1,4]oxazin-7-ylsulfonyl)-1-oxa-8-azaspiro[4.5]decan-3-ylamino)propan-2-ol], the IC50 came to 0.0342 µM.

For `COCCN1CCOc2ncc(S(=O)(=O)N3CCC4(CC3)C[C@@H](NC[C@H](O)COc3cccc(S(=O)(=O)C5CC5)c3)CO4)cc21` [Compound 304, (S)-1-(3-(cyclopropylsulfonyl)phenoxy)-3-((R)-8-(1-(2-methoxyethyl)-2,3-dihydro-1H-pyrido[2,3-b][1,4]oxazin-7-ylsulfonyl)-1-oxa-8-azaspiro[4.5]decan-3-ylamino)propan-2-ol], the half-inhibitory concentration (IC50) worked out at 0.069 µM.

As to `Cc1c(-c2ccc(C3(N)CC3)cc2)cccc1S(=O)(=O)N1CCC2(CC1)C[C@H](NC[C@H](O)COc1cccc(S(=O)(=O)C3(CO)CC3)c1)CO2` [Compound 198, (S)-1-((S)-8-(4′-(1-aminocyclopropyl)-2-methylbiphenyl-3-ylsulfonyl)-1-oxa-8-azaspiro[4.5]decan-3-ylamino)-3-(3-(1-(hydroxymethyl)cyclopropylsulfonyl)phenoxy)propan-2-ol], the concentration for half-maximal inhibition (IC50) was 0.0622 µM.

On to `CCn1cc(S(=O)(=O)N2CCC3(CC2)C[C@@H](NC[C@H](O)COc2cccc(S(=O)(=O)C4(CO)CC4)c2)CO3)c(=O)c2ccccc21` [Compound 292, 1-ethyl-3-((R)-3-((S)-2-hydroxy-3-(3-(1-(hydroxymethyl)cyclopropylsulfonyl)phenoxy)propylamino)-1-oxa-8-azaspiro[4.5]decan-8-ylsulfonyl)quinolin-4(1H)-one], for which the IC50 turned out to be 0.0902 µM.

`CS(=O)(=O)c1cccc(OC[C@@H](O)CNC2COC3(CCN(S(=O)(=O)c4ccc5c(c4)CCCC5)CC3)C2)c1` (stereo partly drawn) [Compound 29, (2S)-1-(3-(methylsulfonyl)phenoxy)-3-(8-(5,6,7,8-tetrahydronaphthalen-2-ylsulfonyl)-1-oxa-8-azaspiro[4.5]decan-3-ylamino)propan-2-ol]: the half-inhibitory concentration (IC50) is 0.0161 µM.

As for `CCS(=O)(=O)c1cccc(OC[C@@H](O)CN[C@H]2COC3(CCN(S(=O)(=O)c4ccc5ncccc5c4)CC3)C2)c1` [Compound 112, (S)-1-(3-(ethylsulfonyl)phenoxy)-3-((R)-8-(quinolin-6-ylsulfonyl)-1-oxa-8-azaspiro[4.5]decan-3-ylamino)propan-2-ol], the IC50 worked out at 0.0395 µM.

Consider `CN1CCOc2ncc(S(=O)(=O)N3CCC4(CC3)C[C@@H](NC[C@H](O)COc3cccc(S(=O)(=O)CC(N)=O)c3)CO4)cc21` [Compound 159, 2-(3-((S)-2-hydroxy-3-((R)-8-(1-methyl-2,3-dihydro-1H-pyrido[2,3-b][1,4]oxazin-7-ylsulfonyl)-1-oxa-8-azaspiro[4.5]decan-3-ylamino)propoxy)phenylsulfonyl)acetamide], for which the 50% inhibitory concentration (IC50) was 0.178 µM.

The term IC50 denotes the midpoint of a concentration-inhibition curve.
